# Target: T1, recombinant metallo-β-lactamase (recombinant IMP-1) (Serratia marcescens, UniProt P52699)
# T1 construct: made in house; host or cells: E. coli BL21(DE3), vector pET29a
# Test: Inhibition of meropenem degradation by recombinant IMP-1 (Test Example 1)
# Type: biochemical
# Conditions: 100 μM meropenem, no inhibitor; 1 hour at 37° C.
# Method: Based on the description of NON PATENT LITERATURE 5, a recombinant metallo-β-lactamase (recombinant IMP-1) was prepared. “NG_049172” of Database: RefSeq as the IMP-1 gene was incorporated into vector pET29a (Novagen), and then expressed in E. coli BL21(DE3) (Invitrogen).
# Recombinant IMP-1 was dissolved in a 50 mM sodium phosphate buffer (pH 7.6) at a concentration of 0.25 μg/ml. Furthermore, zinc chloride was added to the solution in such a manner that the concentration was 0.1 μM. The resultant in this state was subjected to preincubation at 37° C. for 10 minutes. […] After 1 hour of incubation at 37° C. residual meropenem was quantified by tandem mass spectrometry. Meropenem was quantified by a multiple reaction monitoring method. […]
# Reverse phase column: YMC-Triat C18 Plus column (2.1×50 mm); column temperature: 45° C.; mobile phase (2 liquids): mobile phase A (0.1% formic acid aqueous solution), mobile phase B (acetonitrile); gradient: increase from 1% B to 80% B for 10 minutes, keep it at 80% B for 0.5 minutes, and then return it to 1% B over 1 minute. […] Detection: multiple reaction monitoring, parent ion at 384.2, child ion at 68.1; measured in a positive ion mode.
# FIG. 4 depicts a graph showing the results of quantifying the peak area of meropenem detected in FIG. 3. The peak of meropenem alone is expressed as 100%.
# T1 sequence (P52699 19-246 limits assumed): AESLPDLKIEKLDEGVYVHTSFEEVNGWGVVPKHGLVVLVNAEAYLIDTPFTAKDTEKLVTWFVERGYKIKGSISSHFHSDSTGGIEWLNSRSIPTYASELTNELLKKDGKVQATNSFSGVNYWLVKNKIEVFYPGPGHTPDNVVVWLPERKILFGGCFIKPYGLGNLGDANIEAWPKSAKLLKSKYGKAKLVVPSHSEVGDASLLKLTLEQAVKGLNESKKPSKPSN
structure (smiles),measurement,value
"C[C@@H](O)[C@H]1C(=O)N2C(C(=O)O)=C(S[C@@H]3CN[C@H](C(=O)N(C)C)C3)[C@H](C)[C@H]12 [meropenem, reference compound]",degradation of meropenem on incubation with IMP-1,completely degraded

# — US20240245783A1, “METALLO-BETA-LACTAMASE INHIBITOR” (priority 2021, published 2024)
